Laboratory results taken from article PMC10796436, “Peptidyl nitroalkene inhibitors of main protease rationalized by computational and crystallographic investigations as antivirals against SARS-CoV-2” (Communications Chemistry, 2024).
Values joined by “and” are separate entries in the source; they are usually repeats but may differ in a detail not shown here. Equal entries are not always repeated.

What was measured:
[1] = system: Huh-7-ACE2 cells; conditions: 24h
[2] = biological target: T1, DNMT2 (Homo sapiens, UniProt O14717); test: DNMT2 MST-displacement assay; assay type: binding; conditions: 100 μM
T1 sequence (O14717 1-391): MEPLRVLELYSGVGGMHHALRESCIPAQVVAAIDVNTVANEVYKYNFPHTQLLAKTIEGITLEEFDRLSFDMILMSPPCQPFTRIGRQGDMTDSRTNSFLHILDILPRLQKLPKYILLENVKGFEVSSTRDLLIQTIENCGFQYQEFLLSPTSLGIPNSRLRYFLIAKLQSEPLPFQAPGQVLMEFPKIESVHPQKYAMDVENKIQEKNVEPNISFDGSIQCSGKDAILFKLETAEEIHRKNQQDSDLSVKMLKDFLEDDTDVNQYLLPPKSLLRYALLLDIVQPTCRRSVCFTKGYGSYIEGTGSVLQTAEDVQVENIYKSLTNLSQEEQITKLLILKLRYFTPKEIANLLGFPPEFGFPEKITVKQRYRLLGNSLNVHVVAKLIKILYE
Procedure: DNMT2 MST-Displacement Assay. Assay was conducted according to literature 59. The average of quadruple measurements is depicted for two independent measurements each. The positive control was measured without DNMT2 to detect totally unbound FTAD, additionally Sinefungin (SFG), a literature described DNMT2 inhibitor, was used as a second positive control. SFG and FGA146 concentrations in this assay were 100 µM each.
Figure 26. Microscale Thermophoresis displacement experiment against DNMT2.
Other potential off-targets. A search in ChEMBL database for the term “nitroalkene” gave the following papers (excluded 2 synthesis papers using nitroalkenes as reactants) - https://doi.org/10.1021/acsmedchemlett.6b00276: Nitroalkenes against rhodesain and cruzain - https://doi.org/10.1021/jm900326c: Nitroalkene fatty acids against PPARγ - https://doi.org/10.1016/j.ejmech.2012.08.013: Nitroalkene as head group against minor groove binders (anti-infective)
Results one and three are irrelevant due to different organisms as targets. Restult 2 is unlikely to be important, as fatty acid structure deviates from peptidic structure of inhibitors under investigation […]

[3] = Stability in TRIS buffer pH 7.5 by LCMS (warhead hydration); assay type: physicochemical
Procedure: (50 mM, pH 7.5), stored at ca. 30 °C and repeatedly analyzed by LCMS (stability in buffer). […]
Analysis was performed using Mestrenova. LCMS setup: Agilent 1100 series HPLC system coupled to an Agilent 1100 series LC/MSD Trap with electron spray ionization (ESI) , Agilent Poroshell 120 EC-C18, 150x2.10 mm, 4 μm column. A linear gradient was used for elution with a ternary pump using [water/ACN/water + 0.1% formic acid] that changes ratios from 80/10/10 to 0/90/10 over the course of 10 min (0.7 mL/min). Areas of peaks in the chromatogram (detection-λ = 326 nm) were used to calculate the change in concentrations. Retention time and mass spectrum recorded in positive ionization mode were used to assign species.
In preparation of experiments with longer incubation periods (metabolic stability, permeability etc.), first general stability in aqueous systems is to be assessed. For this, a TRIS/HCl buffer system at physiological pH was chosen.
In all measurements, only two relevant “species” of FGA146 are identifiable by mass spectrometry: m/z[M+H2O+H]+ = 504 with tR = 4.8 min and m/z[M+H]+ = 486 with tR = 5.1 min.
For quantification by UV AUC, 326 nm is used as detection wavelength. Wavelengths ≤255 nm are unsuitable since extinction coefficients of free and hydrated warhead seem to vastly differ.
Table 10. […] For exemplary depiction of chromatograms that were used to generate this table, compare Figure SX below. […]
tR = 4.8 min tR = 5.1 min m/z[M+H2O+H]+ = 504 m/z[M+H]+ = 486

[4] = in vitro; conditions: human

For COc1cccc2[nH]c(C(=O)N[C@@H](CC(C)C)C(=O)N[C@H](/C=C/[N+](=O)[O-])C[C@@H]3CCNC3=O)cc12 [FGA146], the CC50 [1] was greater than 100 µM, the “displacement of FTAD from DNMT2” value [2] was “non-binder” and the “equilibrium hydrated to free warhead” value ([3]; TRIS buffer pH 7.5, ca. 30 °C) was 85/15. For the same compound, the “time to 50% conversion to hydrated warhead” value ([3]; TRIS buffer pH 7.5, ca. 30 °C) was 1 h, the “time until hydration equilibrium is reached” value ([3]; TRIS buffer pH 7.5, ca. 30 °C) was 4 h and the “AUCpeak1/AUCTotal (hydrated, m/z 504)” value ([3]; t 0 h) was 10%. For the same compound, the “AUCpeak2/AUCTotal (intact, m/z 486)” value ([3]; t 0 h) was 90%, the “AUCpeak1/AUCTotal (hydrated, m/z 504)” value ([3]; t 0.25 h) was 20% and the “AUCpeak2/AUCTotal (intact, m/z 486)” value ([3]; t 0.25 h) was 80%. The “AUCpeak1/AUCTotal (hydrated, m/z 504)” value ([3]; t 0.5 h) was 34%, the “AUCpeak2/AUCTotal (intact, m/z 486)” value ([3]; t 0.5 h) was 66% and the “AUCpeak1/AUCTotal (hydrated, m/z 504)” value ([3]; t 1 h) was 47% and 53%. For the same compound, the “AUCpeak2/AUCTotal (intact, m/z 486)” value ([3]; t 1 h) was 47% and 53%, the “AUCpeak1/AUCTotal (hydrated, m/z 504)” value ([3]; t 3 h) was 78% and the “AUCpeak2/AUCTotal (intact, m/z 486)” value ([3]; t 3 h) was 22%. The “AUCpeak1/AUCTotal (hydrated, m/z 504)” value ([3]; t 4 h) was 83%, the “AUCpeak2/AUCTotal (intact, m/z 486)” value ([3]; t 4 h) was 17% and the “AUCpeak1/AUCTotal (hydrated, m/z 504)” value ([3]; t 5 h) was 85%. For the same compound, the “AUCpeak2/AUCTotal (intact, m/z 486)” value ([3]; t 5 h) was 15%, the “AUCpeak1/AUCTotal (hydrated, m/z 504)” value ([3]; t 7 h) was 85% and the “AUCpeak2/AUCTotal (intact, m/z 486)” value ([3]; t 7 h) was 14%. The “AUCpeak1/AUCTotal (hydrated, m/z 504)” value ([3]; t 30 h) was 83%, the “AUCpeak2/AUCTotal (intact, m/z 486)” value ([3]; t 30 h) was 14% and the “AUCpeak1/AUCTotal (hydrated, m/z 504)” value ([3]; t 31 h) was 83%. For the same compound, the “AUCpeak2/AUCTotal (intact, m/z 486)” value ([3]; t 31 h) was 14% and the “conversion to hydrated warhead” value ([3]; time to LCMS (<10 min)) was 10%.
CC(C)C[C@H](NC(=O)OCc1ccccc1)C(=O)N[C@H](/C=C/[N+](=O)[O-])C[C@@H]1CCNC1=O [FGA147] gave a CC50 [4] greater than 100 µM.
